Assay results as given in patent US20200187502A1, “MICROBIOCIDAL OXADIAZOLE DERIVATIVES” (SYNGENTA PARTICIPATIONS AG, priority 2017, published 2020).

Experiments:
[1] = tested on: Glomerella lacenarium (Colletotrichum lacenarium); assay: Fungicidal activity, liquid culture, cucumber preventative (anthracnose); type: cell-based; settings: 20 ppm in the applied formulation, liquid culture in PDB, inhibition of growth measured photometrically 3 to 4 days after application, compared to untreated control, read-out: disease control
How it was run: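 Conidia from cryogenic storage were mixed into potato dextrose broth and added to DMSO solutions of test compound in microtiter plates. Plates were incubated at 24° C. and growth inhibition read photometrically 3 to 4 days after application, as percent antifungal activity versus untreated check.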

[2] = tested on: Puccinia recondita f. Sp. Tritici; assay: Fungicidal activity, wheat leaf disc preventative (brown rust); type: in vivo; settings: foliar, 200 ppm in the applied formulation, wheat leaf segments cv. Kanzler, compared to untreated control, 7 to 9 days after application, read-out: disease control
How it was run: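 Wheat cv. Kanzler leaf segments on agar were sprayed with formulated compound in water, then inoculated with spores 1 day later. Incubated at 19° C, 75% rh, 12 h light/12 h dark; percent disease control versus untreated scored 7 to 9 days after application.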

[3] = tested on: Puccinia recondita f. Sp. Tritici; assay: Fungicidal activity, wheat leaf disc curative (brown rust); type: in vivo; settings: foliar, 200 ppm in the applied formulation, wheat leaf segments cv. Kanzler, curative (applied 1 day after inoculation), compared to untreated control, 6 to 8 days after application, read-out: disease control
How it was run: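 Wheat cv. Kanzler leaf segments on agar were inoculated with fungal spore suspension, held dark at 19° C and 75% RH, then sprayed 1 day later with formulated compound diluted in water. Incubation continued at 19° C, 75% RH, 12 h light/12 h dark; percent disease control versus untreated was scored 6 to 8 days after application.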

Phakopsora pachyrhizi = assay: Fungicidal activity, soybean leaf disc preventative (Asian soybean rust); type: in vivo; settings: foliar, 200 ppm in the applied formulation, soybean leaf disks, compared to untreated control, 12 to 14 days after application, read-out: disease control
Experimental: Leaf disks or leaf segments of various plant species are cut from plants grown in a greenhouse. The cut leaf disks or segments are placed in multiwell plates (24-well format) onto water agar. The leaf disks are sprayed with a test solution before (preventative) or after (curative) inoculation. Compounds to be tested are prepared as DMSO solutions (max. 10 mg/ml) which are diluted to the appropriate concentration with 0.025% Tween20 just before spraying. The inoculated leaf disks or segments are incubated under defined conditions (temperature, relative humidity, light, etc.) according to the respective test system. A single evaluation of disease level is carried out 3 to 14 days after inoculation, depending on the pathosystem. Percent disease control relative to the untreated check leaf disks or segments is then calculated.
Soybean leaf disks are placed on water agar in multiwell plates (24-well format) and sprayed with the formulated test compound diluted in water. One day after application leaf discs are inoculated by spraying a spore suspension on the lower leaf surface. After an incubation period in a climate cabinet of 24-36 hours in darkness at 20° C. and 75% rh leaf disc are kept at 20° C. with 12 h light/day and 75% rh. The activity of a compound is assessed as percent disease control compared to untreated when an appropriate level of disease damage appears in untreated check leaf disks (12 to 14 days after application).
The following compounds at 200 ppm in the applied formulation give at least 80% disease control in this test when compared to untreated control leaf disks under the same conditions, which show extensive disease development.

CN(Cc1ccc(-c2noc(C(F)(F)F)n2)s1)C(=O)C(N)=O [Compound 6.7, N′-methyl-N′-[[5-[5-(trifluoromethyl)-1,2,4-oxadiazol-3-yl]-2-thienyl]methyl]oxamide]
≥ 80%: inhibition of growth at 20 ppm [1] | pest or weed control at 200 ppm [2] | pest or weed control at 200 ppm [3] | pest or weed control at 200 ppm (Phakopsora pachyrhizi)

COC(C)C(=O)NCc1ccc(-c2noc(C(F)(F)F)n2)s1 (stereo not shown) [Compound 2.6, 2-methoxy-N-[[5-[5-(trifluoromethyl)-1,2,4-oxadiazol-3-yl]-2-thienyl]methyl]propanamide]
≥ 80%: inhibition of growth at 20 ppm [1] | pest or weed control at 200 ppm [2] | pest or weed control at 200 ppm [3] | pest or weed control at 200 ppm (Phakopsora pachyrhizi)

COCCC(=O)NCc1ccc(-c2noc(C(F)(F)F)n2)s1 [Compound 2.4, 3-methoxy-N-[[5-[5-(trifluoromethyl)-1,2,4-oxadiazol-3-yl]-2-thienyl]methyl]propanamide]
≥ 80%: inhibition of growth at 20 ppm [1] | pest or weed control at 200 ppm [2] | pest or weed control at 200 ppm [3] | pest or weed control at 200 ppm (Phakopsora pachyrhizi)

CCNC(=O)N(C)Cc1ccc(-c2noc(C(F)(F)F)n2)s1 [Compound 4.16, 3-ethyl-1-methyl-1-[[5-[5-(trifluoromethyl)-1,2,4-oxadiazol-3-yl]-2-thienyl]methyl]urea]
≥ 80%: inhibition of growth at 20 ppm [1] | pest or weed control at 200 ppm [2] | pest or weed control at 200 ppm [3] | pest or weed control at 200 ppm (Phakopsora pachyrhizi)

COC(C)C(=O)N(Cc1ccc(-c2noc(C(F)(F)F)n2)s1)OC (stereo not shown) [Compound 1.1, N,2-dimethoxy-N-[[5-[5-(trifluoromethyl)-1,2,4-oxadiazol-3-yl]-2-thienyl]methyl]propanamide]
≥ 80%: inhibition of growth at 20 ppm [1] | pest or weed control at 200 ppm [2] | pest or weed control at 200 ppm [3] | pest or weed control at 200 ppm (Phakopsora pachyrhizi)

CON(Cc1ccc(-c2noc(C(F)(F)F)n2)s1)C(=O)C1(C)COC1 [Compound 1.16, N-methoxy-3-methyl-N-[[5-[5-(trifluoromethyl)-1,2,4-oxadiazol-3-yl]-2-thienyl]methyl]oxetane-3-carboxamide]
≥ 80%: inhibition of growth at 20 ppm [1] | pest or weed control at 200 ppm [2] | pest or weed control at 200 ppm [3] | pest or weed control at 200 ppm (Phakopsora pachyrhizi)

CON(Cc1ccc(-c2noc(C(F)(F)F)n2)s1)C(=O)C1CC1 [Compound 1.4, N-methoxy-N-[[5-[5-(trifluoromethyl)-1,2,4-oxadiazol-3-yl]-2-thienyl]methyl]cyclopropanecarboxamide]
≥ 80%: inhibition of growth at 20 ppm [1] | pest or weed control at 200 ppm [2] | pest or weed control at 200 ppm [3] | pest or weed control at 200 ppm (Phakopsora pachyrhizi)

O=C(NCc1ccc(-c2noc(C(F)(F)F)n2)s1)C1CCOC1 (stereo not shown) [Compound 3.3, N-[[5-[5-(trifluoromethyl)-1,2,4-oxadiazol-3-yl]-2-thienyl]methyl]tetrahydrofuran-3-carboxamide]
≥ 80%: inhibition of growth at 20 ppm [1] | pest or weed control at 200 ppm [2] | pest or weed control at 200 ppm [3] | pest or weed control at 200 ppm (Phakopsora pachyrhizi)

CC1CC1C(=O)NCc1ccc(-c2noc(C(F)(F)F)n2)s1 (stereo not shown) [Compound 3.5, 2-methyl-N-[[5-[5-(trifluoromethyl)-1,2,4-oxadiazol-3-yl]-2-thienyl]methyl]cyclopropanecarboxamide]
≥ 80%: inhibition of growth at 20 ppm [1] | pest or weed control at 200 ppm [2] | pest or weed control at 200 ppm [3] | pest or weed control at 200 ppm (Phakopsora pachyrhizi)

CCCC(=O)NCc1ccc(-c2noc(C(F)(F)F)n2)s1 [Compound 2.8, N-[[5-[5-(trifluoromethyl)-1,2,4-oxadiazol-3-yl]-2-thienyl]methyl]butanamide]
≥ 80%: inhibition of growth at 20 ppm [1] | pest or weed control at 200 ppm [2] | pest or weed control at 200 ppm [3] | pest or weed control at 200 ppm (Phakopsora pachyrhizi)

CNC(=O)N(Cc1ccc(-c2noc(C(F)(F)F)n2)s1)C1CC1 [Compound 4.2, 1-cyclopropyl-3-methyl-1-[[5-[5-(trifluoromethyl)-1,2,4-oxadiazol-3-yl]-2-thienyl]methyl]urea]
≥ 80%: inhibition of growth at 20 ppm [1] | pest or weed control at 200 ppm [2] | pest or weed control at 200 ppm [3] | pest or weed control at 200 ppm (Phakopsora pachyrhizi)

CON(Cc1ccc(-c2noc(C(F)(F)F)n2)s1)C(=O)C1CCC1 [Compound 1.13, N-methoxy-N-[[5-[5-(trifluoromethyl)-1,2,4-oxadiazol-3-yl]-2-thienyl]methyl]cyclobutanecarboxamide]
≥ 80%: inhibition of growth at 20 ppm [1] | pest or weed control at 200 ppm [2] | pest or weed control at 200 ppm [3] | pest or weed control at 200 ppm (Phakopsora pachyrhizi)

CCN(Cc1ccc(-c2noc(C(F)(F)F)n2)s1)C(=O)NCCOC [Compound 4.72, 1-ethyl-3-(2-methoxyethyl)-1-[[5-[5-(trifluoromethyl)-1,2,4-oxadiazol-3-yl]-2-thienyl]methyl]urea]
≥ 80%: inhibition of growth at 20 ppm [1] | pest or weed control at 200 ppm [2] | pest or weed control at 200 ppm [3] | pest or weed control at 200 ppm (Phakopsora pachyrhizi)

CC(=O)N(Cc1ccc(-c2noc(C(F)(F)F)n2)s1)C(C)C [Compound 4.51, N-isopropyl-N-[[5-[5-(trifluoromethyl)-1,2,4-oxadiazol-3-yl]-2-thienyl]methyl]acetamide]
≥ 80%: inhibition of growth at 20 ppm [1] | pest or weed control at 200 ppm [3] | pest or weed control at 200 ppm (Phakopsora pachyrhizi)

CCN(Cc1ccc(-c2noc(C(F)(F)F)n2)s1)C(=O)CC(F)(F)F [Compound 4.30, N-ethyl-3,3,3-trifluoro-N-[[5-[5-(trifluoromethyl)-1,2,4-oxadiazol-3-yl]-2-thienyl]methyl]propanamide]
≥ 80%: inhibition of growth at 20 ppm [1] | pest or weed control at 200 ppm [3] | pest or weed control at 200 ppm (Phakopsora pachyrhizi)

CN(Cc1ccc(-c2noc(C(F)(F)F)n2)s1)S(=O)(=O)Cc1ccccc1 [Compound 6.22, N-methyl-1-phenyl-N-[[5-[5-(trifluoromethyl)-1,2,4-oxadiazol-3-yl]-2-thienyl]methyl]methanesulfonamide]
≥ 80%: inhibition of growth at 20 ppm [1] | pest or weed control at 200 ppm [2] | pest or weed control at 200 ppm (Phakopsora pachyrhizi)

CCC(=O)N(Cc1ccc(-c2noc(C(F)(F)F)n2)s1)C(C)C [Compound 4.46, N-isopropyl-N-[[5-[5-(trifluoromethyl)-1,2,4-oxadiazol-3-yl]-2-thienyl]methyl]propanamide]
≥ 80%: inhibition of growth at 20 ppm [1] | pest or weed control at 200 ppm [3] | pest or weed control at 200 ppm (Phakopsora pachyrhizi)

CON(Cc1ccc(-c2noc(C(F)(F)F)n2)s1)C(=O)C(C)C [Compound 1.26, N-methoxy-2-methyl-N-[[5-[5-(trifluoromethyl)-1,2,4-oxadiazol-3-yl]-2-thienyl]methyl]propanamide]
≥ 80%: inhibition of growth at 20 ppm [1] | pest or weed control at 200 ppm [2] | pest or weed control at 200 ppm (Phakopsora pachyrhizi)
